From patent publication US9512114B2, “Substituted aminopyrimidine compounds and methods of use” (Calitor Sciences, LLC, priority 2013, dated 2016)

Assays:
[1] = test system: systemic lupus erythematosis model; conditions: Nature Medicine, 2005, 11, 933-935; cited from earlier work
[2] = test system: rheumatoid arthritis model; conditions: Nature Medicine, 2005, 11, 936-943; cited from earlier work
[3] = Compound stability in rat liver microsomes; format: in vitro ADME; conditions: pH 7.4; for CLint scaled at 5 μM: liver microsomes, in vivo CLint extrapolated from rat liver microsome incubation; for half-life at 5 μM: rat liver microsomes 0.5 mg protein/mL, compound 5 μM, NADPH 1.0 mM, 37° C., read-out: Rat T1/2
In short: (§1)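 Human or rat liver microsomes (0.5 mg protein/mL) incubated with compound (5 μM) and NADPH (1.0 mM) in 100 mM potassium phosphate, pH 7.4, 0.05% DMSO, 37° C, sampled 0–60 min and quenched with cold acetonitrile. Remaining compound quantified by LC/MS/MS as % of time zero; CLint extrapolated.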

[4] = Compound stability in human liver microsomes; format: in vitro ADME; conditions: pH 7.4; for CLint scaled at 5 μM: liver microsomes, in vivo CLint extrapolated from human liver microsome incubation; for half-life at 5 μM: human liver microsomes 0.5 mg protein/mL, compound 5 μM, NADPH 1.0 mM, 37° C., read-out: Human T1/2
In short: as §1

PI3K (p110α/p85α) (h) = PI3K (p110α/p85α) (h) (Homo sapiens (Human), UniProt P42336); assay: PI3K (p110α/p85α) (h) non-radioactive HTRF kinase assay; format: biochemical; conditions: performed at Millipore UK Ltd
Procedure: (§2) The above assay procedure can be used to determine the IC50 for inhibition and/or the inhibition constant, Ki.
PI3K (p110α/p85α) (h) [Non-Radioactive Assay]
(§3) PI3K (p110α/p85α) (h) is incubated in assay buffer containing 10 μM phosphatidylinositol 4,5-bisphosphate and MgATP (concentration as required). The reaction is initiated by the addition of the ATP solution. After incubation for 30 minutes at room temperature, the reaction is stopped by the addition of stop solution containing EDTA and biotinylated phosphatidylinositol-3,4,5-trisphosphate. Finally, detection buffer is added, which contains europium-labelled anti-GST monoclonal antibody, GST-tagged GRP1 PH domain and streptavidin allophycocyanin. The plate is then read in timeresolved fluorescence mode and the homogenous time-resolved fluorescence (HTRF) signal is determined according to the formula HTRF=10000×(Em665 nm/Em620 nm).
(§4) The kinase assays described herein were performed at Millipore UK Ltd, Dundee Technology Park, Dundee DD2 1SW, UK.

PI3K (p110δ/p85α) (h) = PI3K (p110δ/p85α) (h) (Homo sapiens (Human), UniProt O00329); assay: PI3K (p110δ/p85α) (h) non-radioactive HTRF kinase assay; format: biochemical; conditions: performed at Millipore UK Ltd
Procedure: as §2
PI3K (p110δ/p85α) (h) [Non-Radioactive Assay]
as §3, with “(p110δ/p85α)” for “(p110α/p85α)”, “phosphatidylinositol-4, 5-bisphosphate” for “phosphatidylinositol 4,5-bisphosphate”, “MgATP mix.” for “ATP solution.”, “streptavidin-allophycocyanin.” for “streptavidin allophycocyanin.”
as §4

PI3K (p120γ) (h) = PI3K (p120γ) (h) (Homo sapiens (Human), UniProt P48736); assay: PI3K (p120γ) (h) non-radioactive HTRF kinase assay; format: biochemical; conditions: performed at Millipore UK Ltd
Procedure: as §2
PI3K (p120γ) (h) [Non-Radioactive Assay]
as §3, with “(p120γ)” for “(p110α/p85α)”, “phosphatidylinositol-4, 5-bisphosphate” for “phosphatidylinositol 4,5-bisphosphate”, “MgATP mix.” for “ATP solution.”, “streptavidin-allophycocyanin.” for “streptavidin allophycocyanin.”
as §4

PI3K (p110β/p85α) (h) = PI3K (p110β/p85α) (h) (Homo sapiens (Human), UniProt P42338); assay: PI3K (p110β/p85α) (h) non-radioactive HTRF kinase assay; format: biochemical; conditions: performed at Millipore UK Ltd
Procedure: as §2
PI3K (p110β/p85α) (h) [Non-Radioactive Assay]
as §3, with “([…])” for “(p110α/p85α)”, “phosphatidylinositol-4, 5-bisphosphate” for “phosphatidylinositol 4,5-bisphosphate”, “MgATP mix.” for “ATP solution.”, “streptavidin-allophycocyanin.” for “streptavidin allophycocyanin.”
as §4

[5] = Pharmacokinetic profiles in rats; format: in vivo, rat
In short: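 In rats, dogs and monkeys, IV dose was generally 1 or 2 mg/kg. Oral dose was generally 5 or 10 mg/kg in rats and 10 mg/kg in dogs and monkeys, given as solution, suspension or capsule. Plasma sampled over up to 24 h and analysed by LC/MS/MS.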

PI3Kδ = conditions: Cell, 2006, 125, 733-747; cited from earlier work
protein kinases = conditions: Cell, 2006, 125, 733-747; cited from earlier work
[6] = test system: ovalbumin-induced airway inflammation; conditions: murine asthma model, FASEB, 2006, 20: 455-465; cited from earlier work

PI3K (p110β/p85α) (h), sequence (P42338 whole entry): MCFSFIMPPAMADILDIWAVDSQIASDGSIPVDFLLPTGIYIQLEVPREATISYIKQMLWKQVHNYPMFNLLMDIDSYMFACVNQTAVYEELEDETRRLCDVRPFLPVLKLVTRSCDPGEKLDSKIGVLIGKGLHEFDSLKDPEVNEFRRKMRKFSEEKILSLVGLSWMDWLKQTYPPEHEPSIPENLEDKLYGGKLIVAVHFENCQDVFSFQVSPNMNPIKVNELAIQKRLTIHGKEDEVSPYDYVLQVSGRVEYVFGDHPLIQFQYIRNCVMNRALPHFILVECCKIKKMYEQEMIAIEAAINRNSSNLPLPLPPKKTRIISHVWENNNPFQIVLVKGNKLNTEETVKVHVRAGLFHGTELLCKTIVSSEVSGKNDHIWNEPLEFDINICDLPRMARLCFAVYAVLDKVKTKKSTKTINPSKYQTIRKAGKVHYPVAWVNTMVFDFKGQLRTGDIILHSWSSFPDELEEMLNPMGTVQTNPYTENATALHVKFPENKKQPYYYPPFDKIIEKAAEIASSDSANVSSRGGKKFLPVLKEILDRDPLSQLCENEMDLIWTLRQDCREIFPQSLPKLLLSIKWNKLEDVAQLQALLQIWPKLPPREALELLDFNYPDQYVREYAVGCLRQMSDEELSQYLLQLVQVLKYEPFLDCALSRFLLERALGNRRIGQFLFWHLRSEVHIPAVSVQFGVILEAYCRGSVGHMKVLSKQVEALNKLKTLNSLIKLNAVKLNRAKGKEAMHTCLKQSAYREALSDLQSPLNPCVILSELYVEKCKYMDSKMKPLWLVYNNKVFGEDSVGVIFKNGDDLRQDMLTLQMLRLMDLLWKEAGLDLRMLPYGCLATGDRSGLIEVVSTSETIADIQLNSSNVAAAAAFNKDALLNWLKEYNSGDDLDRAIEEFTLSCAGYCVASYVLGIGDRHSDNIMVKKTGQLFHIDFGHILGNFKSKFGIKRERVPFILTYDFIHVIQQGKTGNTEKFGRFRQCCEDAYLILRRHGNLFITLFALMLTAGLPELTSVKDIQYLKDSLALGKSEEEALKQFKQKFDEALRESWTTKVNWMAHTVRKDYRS
PI3K (p110β/p85α) (h), sequence (P27986 whole entry partner): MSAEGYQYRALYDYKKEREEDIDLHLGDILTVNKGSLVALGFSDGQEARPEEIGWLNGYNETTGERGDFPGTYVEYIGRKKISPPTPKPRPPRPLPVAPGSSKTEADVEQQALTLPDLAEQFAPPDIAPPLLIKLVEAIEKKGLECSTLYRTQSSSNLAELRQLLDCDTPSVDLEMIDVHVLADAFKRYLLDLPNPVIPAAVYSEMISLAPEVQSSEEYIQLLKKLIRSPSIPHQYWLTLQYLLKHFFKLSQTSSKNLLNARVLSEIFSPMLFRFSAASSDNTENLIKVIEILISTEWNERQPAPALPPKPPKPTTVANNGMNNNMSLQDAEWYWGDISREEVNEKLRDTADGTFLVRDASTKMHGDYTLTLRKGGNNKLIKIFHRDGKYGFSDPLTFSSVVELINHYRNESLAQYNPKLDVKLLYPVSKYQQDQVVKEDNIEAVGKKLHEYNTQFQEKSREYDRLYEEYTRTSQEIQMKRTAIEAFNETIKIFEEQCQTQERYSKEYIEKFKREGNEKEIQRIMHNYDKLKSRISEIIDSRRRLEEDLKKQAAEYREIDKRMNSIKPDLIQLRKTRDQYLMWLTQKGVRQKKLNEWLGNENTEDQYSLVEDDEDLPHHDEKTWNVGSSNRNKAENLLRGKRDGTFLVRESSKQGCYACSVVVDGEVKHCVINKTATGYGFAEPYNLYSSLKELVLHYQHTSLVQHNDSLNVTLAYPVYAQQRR
PI3K (p110α/p85α) (h), sequence (P42336 whole entry): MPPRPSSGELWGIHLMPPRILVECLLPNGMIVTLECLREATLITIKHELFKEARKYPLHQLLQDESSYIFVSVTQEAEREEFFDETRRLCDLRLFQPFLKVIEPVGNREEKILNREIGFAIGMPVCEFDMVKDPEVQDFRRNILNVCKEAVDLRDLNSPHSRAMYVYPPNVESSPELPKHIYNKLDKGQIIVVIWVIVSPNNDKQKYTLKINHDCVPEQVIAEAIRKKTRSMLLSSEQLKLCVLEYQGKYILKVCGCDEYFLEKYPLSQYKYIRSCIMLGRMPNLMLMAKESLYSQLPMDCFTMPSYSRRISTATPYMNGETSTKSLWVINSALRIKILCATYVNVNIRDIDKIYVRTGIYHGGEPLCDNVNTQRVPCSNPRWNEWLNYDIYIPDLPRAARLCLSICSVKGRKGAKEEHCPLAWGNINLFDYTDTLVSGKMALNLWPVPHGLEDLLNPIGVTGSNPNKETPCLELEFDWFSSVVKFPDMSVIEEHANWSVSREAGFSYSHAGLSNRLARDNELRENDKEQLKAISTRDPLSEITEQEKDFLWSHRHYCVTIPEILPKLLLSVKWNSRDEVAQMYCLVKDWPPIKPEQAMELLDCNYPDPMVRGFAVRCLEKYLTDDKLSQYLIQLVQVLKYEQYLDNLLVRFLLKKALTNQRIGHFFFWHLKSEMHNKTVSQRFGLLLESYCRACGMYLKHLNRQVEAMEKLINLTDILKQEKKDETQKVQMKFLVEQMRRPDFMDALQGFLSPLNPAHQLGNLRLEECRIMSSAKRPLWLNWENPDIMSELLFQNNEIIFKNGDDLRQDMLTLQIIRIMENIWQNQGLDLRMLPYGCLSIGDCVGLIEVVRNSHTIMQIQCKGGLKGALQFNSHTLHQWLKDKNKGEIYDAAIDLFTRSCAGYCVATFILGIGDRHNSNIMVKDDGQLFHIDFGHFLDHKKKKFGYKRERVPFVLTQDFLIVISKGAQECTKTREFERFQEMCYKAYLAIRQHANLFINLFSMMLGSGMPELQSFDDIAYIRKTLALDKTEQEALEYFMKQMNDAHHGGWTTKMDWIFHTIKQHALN
PI3K (p110α/p85α) (h), sequence (P27986 whole entry partner): as the sequence (P27986 whole entry partner) above
PI3K (p120γ) (h), sequence (P48736 whole entry): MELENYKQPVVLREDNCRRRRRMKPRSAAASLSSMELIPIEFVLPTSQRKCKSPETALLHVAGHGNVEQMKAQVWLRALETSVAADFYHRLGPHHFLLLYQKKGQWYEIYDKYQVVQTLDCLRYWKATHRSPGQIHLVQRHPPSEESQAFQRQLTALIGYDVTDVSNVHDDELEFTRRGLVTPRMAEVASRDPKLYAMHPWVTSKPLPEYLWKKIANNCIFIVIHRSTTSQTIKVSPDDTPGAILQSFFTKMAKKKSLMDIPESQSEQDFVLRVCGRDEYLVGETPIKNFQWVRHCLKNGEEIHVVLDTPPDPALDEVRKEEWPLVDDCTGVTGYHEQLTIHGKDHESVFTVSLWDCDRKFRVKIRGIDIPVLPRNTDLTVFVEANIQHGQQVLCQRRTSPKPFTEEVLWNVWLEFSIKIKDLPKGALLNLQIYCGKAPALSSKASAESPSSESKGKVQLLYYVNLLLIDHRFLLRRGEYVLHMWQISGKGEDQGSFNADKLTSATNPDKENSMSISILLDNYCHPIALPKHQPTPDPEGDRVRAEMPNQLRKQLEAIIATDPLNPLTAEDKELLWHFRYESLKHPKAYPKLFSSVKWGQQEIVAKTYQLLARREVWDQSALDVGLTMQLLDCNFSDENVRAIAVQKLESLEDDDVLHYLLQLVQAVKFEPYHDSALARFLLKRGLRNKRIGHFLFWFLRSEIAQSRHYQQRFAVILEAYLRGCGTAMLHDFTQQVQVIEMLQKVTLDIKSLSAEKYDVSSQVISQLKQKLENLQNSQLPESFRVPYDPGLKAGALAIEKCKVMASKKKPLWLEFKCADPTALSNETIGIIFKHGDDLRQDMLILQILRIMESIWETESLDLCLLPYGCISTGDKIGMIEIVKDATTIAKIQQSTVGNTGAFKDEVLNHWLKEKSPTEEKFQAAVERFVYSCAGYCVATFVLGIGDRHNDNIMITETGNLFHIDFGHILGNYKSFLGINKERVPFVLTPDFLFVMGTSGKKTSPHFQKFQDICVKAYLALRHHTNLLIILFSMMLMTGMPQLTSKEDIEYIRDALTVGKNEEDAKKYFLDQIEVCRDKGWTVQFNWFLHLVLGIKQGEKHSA
PI3K (p110δ/p85α) (h), sequence (O00329 whole entry): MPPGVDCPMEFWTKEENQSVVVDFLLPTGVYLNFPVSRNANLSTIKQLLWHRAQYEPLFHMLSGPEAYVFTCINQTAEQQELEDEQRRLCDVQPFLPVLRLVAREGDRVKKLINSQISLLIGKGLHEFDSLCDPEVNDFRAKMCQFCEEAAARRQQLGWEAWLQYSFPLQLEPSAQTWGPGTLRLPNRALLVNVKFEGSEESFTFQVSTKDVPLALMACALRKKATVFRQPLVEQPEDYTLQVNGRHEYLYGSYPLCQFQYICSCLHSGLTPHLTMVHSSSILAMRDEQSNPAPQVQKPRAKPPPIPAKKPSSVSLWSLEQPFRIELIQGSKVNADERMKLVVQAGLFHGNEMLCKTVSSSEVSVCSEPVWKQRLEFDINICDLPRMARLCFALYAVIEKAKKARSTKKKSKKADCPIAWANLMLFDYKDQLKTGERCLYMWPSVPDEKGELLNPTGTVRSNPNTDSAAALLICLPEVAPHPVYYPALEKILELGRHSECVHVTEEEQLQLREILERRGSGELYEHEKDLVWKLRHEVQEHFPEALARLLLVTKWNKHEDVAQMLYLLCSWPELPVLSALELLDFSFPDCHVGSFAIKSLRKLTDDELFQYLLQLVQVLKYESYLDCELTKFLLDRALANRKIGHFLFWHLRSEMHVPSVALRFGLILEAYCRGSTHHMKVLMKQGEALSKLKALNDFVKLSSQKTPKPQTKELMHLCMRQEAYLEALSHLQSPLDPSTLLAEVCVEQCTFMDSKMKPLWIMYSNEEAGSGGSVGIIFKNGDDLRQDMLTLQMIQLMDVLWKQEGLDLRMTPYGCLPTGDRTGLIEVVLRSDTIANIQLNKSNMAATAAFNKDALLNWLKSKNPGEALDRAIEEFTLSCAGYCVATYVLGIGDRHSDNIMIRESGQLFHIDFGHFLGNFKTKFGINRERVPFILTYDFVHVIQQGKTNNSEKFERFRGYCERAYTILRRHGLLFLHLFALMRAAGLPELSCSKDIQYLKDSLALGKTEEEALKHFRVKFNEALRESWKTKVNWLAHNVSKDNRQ
PI3K (p110δ/p85α) (h), sequence (P27986 whole entry partner): as the sequence (P27986 whole entry partner) above

Structure (SMILES)	CLint scaled at 5 μM [3]	half-life at 5 μM [3]	CLint scaled at 5 μM [4]	half-life at 5 μM [4]	IC50 (PI3K (p110α/p85α) (h))	IC50 (PI3K (p110δ/p85α) (h))	IC50 (PI3K (p120γ) (h))	IC50 (PI3K (p110β/p85α) (h))	Cl/F ([5]; iv dosing 1 mg/kg)	F ([5]; oral vs iv (iv 1 mg/kg; p.o. generally 5 or 10 mg/kg))	AUC(0-t) ([5]; rat, plasma, iv dosing 1 mg/kg)	half-life ([5]; rat, plasma, iv dosing 1 mg/kg)	Vd ([5]; rat, plasma, iv dosing 1 mg/kg, read-out: Vss)	effect on onset of disease in model of systemic lupus erythematosis [1]	efficacy in mouse model of rheumatoid arthritis [2]	inhibits PI3Kδ (PI3Kδ)	activity against any protein kinases tested (protein kinases)	effect on inflammation and disease [6]
O=C1NC(=O)/C(=C\c2ccc3nccnc3c2)S1 [AS 605240]	–	–	–	–	–	–	–	–	–	–	–	–	–	delay onset of disease	efficacious	–	–	–
CC[C@H](Nc1ncnc(N)c1-c1nnc(C)o1)c1cc2cccc(Cl)c2c(=O)n1-c1ccccc1 [Ex. 5, (S)-3-(1-((6-amino-5-(5-methyl-1,3,4-oxadiazol-2-yl)pyrimidin-4-yl)amino)propyl)-8-chloro-2-phenylisoquinolin-1(2H)-one]	108 mL/min/kg	23.1 min	29.2 mL/min/kg	59.6 min	> 3000 nM	–	388 nM	259 nM	52.2 mL/min/kg	106.3%	320 ng·h/mL	31.8 min	1.87 L/kg	–	–	–	–	–
Cc1ccccc1-n1c(Cn2cnc3c(N)ncnc32)nc2cccc(C)c2c1=O [IC87114]	–	–	–	–	–	–	–	–	–	–	–	–	–	–	–	high nanomolar range (triple digit)	no activity	significantly ameliorate inflammation and disease

More lines, main results first:

CLint scaled at 5 μM [3]	half-life at 5 μM [3]	CLint scaled at 5 μM [4]	half-life at 5 μM [4]	IC50 (PI3K (p110α/p85α) (h))	IC50 (PI3K (p110δ/p85α) (h))	IC50 (PI3K (p120γ) (h))	IC50 (PI3K (p110β/p85α) (h))	Cl/F ([5]; iv dosing 1 mg/kg)	F ([5]; oral vs iv (iv 1 mg/kg; p.o. generally 5 or 10 mg/kg))	AUC(0-t) ([5]; rat, plasma, iv dosing 1 mg/kg)	half-life ([5]; rat, plasma, iv dosing 1 mg/kg)	Vd ([5]; rat, plasma, iv dosing 1 mg/kg, read-out: Vss)	Structure (SMILES)	effect on onset of disease in model of systemic lupus erythematosis [1]	efficacy in mouse model of rheumatoid arthritis [2]	inhibits PI3Kδ (PI3Kδ)	activity against any protein kinases tested (protein kinases)	effect on inflammation and disease [6]
33.3 mL/min/kg	74.5 min	15.5 mL/min/kg	112 min	> 3000 nM	17 nM	237 nM	> 3000 nM	–	–	–	–	–	Cc1nnc(-c2c(N)ncnc2N[C@@H](C)c2cc3cccc(-c4cnn(C)c4)c3c(=O)n2-c2ccccc2)o1 [Ex. 27, (S)-3-(1-((6-amino-5-(5-methyl-1,3,4-oxadiazol-2-yl)pyrimidin-4-yl)amino)ethyl)-8-(1-methyl-1H-pyrazol-4-yl)-2-phenylisoquinolin-1(2H)-one]	–	–	–	–	–
72.7 mL/min/kg	34.2 min	64.1 mL/min/kg	27.1 min	225 nM	9 nM	104 nM	1170 nM	–	–	–	–	–	Cc1noc(-c2c(N)ncnc2N[C@@H](C)c2cc3cccc(-c4cnn(C)c4)c3c(=O)n2-c2ccccc2)n1 [Ex. 28, (S)-3-(1-((6-amino-5-(3-methyl-1,2,4-oxadiazol-5-yl)pyrimidin-4-yl)amino)ethyl)-8-(1-methyl-1H-pyrazol-4-yl)-2-phenylisoquinolin-1(2H)-one]	–	–	–	–	–
